Test results taken from patent US20150290418A1, “TREATMENT OF RESPIRATORY CONDITION USING TARGETED DELIVERY” (Beth Israel Deaconess Medical Center, Inc., priority 2013, published 2015).

Legend:
Format in all cases: in vivo
airways [1] = assay: Bronchodilation with targeted versus continuous delivery mode of volatile anesthetics (FIG. 8); settings: targeted vs continuous delivery
Description: The various delivery modes are at least targeted mode and continuous mode. […] Using the systems and methods described here, volatile anesthetics can be selectively delivered for a specified interval during inspiration.

[2] = Isoflurane traces during targeted and continuous delivery modes (FIG. 9); settings: two breaths
Description: FIG. 9 are exemplary graphs 900 illustrating isoflurane traces during various delivery modes in relation to the delivered tidal volume for two breaths, according to an example embodiment. As shown in graphs 900, the solid line represents the amount of isoflurane in the lungs and the dotted line represents the tidal volume (Vt) over time.

airways [3] = assay: Lung measurements for targeted isoflurane delivery during phases of treatment (FIG. 7); settings: following targeted therapy with isoflurane
Description: Severe sustained bronchospasm may be established using continuous i.v. infusion of methacholine. Using the anesthetic ventilator system, a user has the ability to control the timing, peak concentration, and duration of inhaled isoflurane delivery for various ranges of conventional ventilator rates and tidal volumes typical of ICU patients. In one embodiment, the solenoid valves (shown in FIG. 1) can be programmed to deliver isoflurane during the last 180 cc of the delivered inspired volume. Furthermore, none of the inhaled isoflurane delivered during the last portion of the inspiratory period reaches the alveolar compartment to reduce the risk of side effects and systemic absorption.
FIG. 7 are exemplary graphs 700 illustrating various lung measurements for targeted isoflurane delivery measured during various phases of treatment, according to an example embodiment. As shown in graphs 700, various lung measurements, including lung resistance (RL), lung elastance (EL), and dead space (VD), are measured as described above. […] The estimates of lung resistance and lung elastance may be obtained via multiple linear regression on measured flow and transplumonary pressure waveforms. Anatomic dead space may be estimated using breath-by-breath volume capnography. Capnography is the monitoring of the concentration or partial pressure of carbon dioxide in the respiratory gases. These measurements may be acquired at least under baseline conditions, during bronchoconstriction, after 10-20 minutes of volatile anesthetic treatment, and after maximal bronochodilation with i.v. atrophine. Airway constriction results in increased airway resistance and stiffening of the lung parenchyma, which is often measured with lung resistance and lung elastance. Measuring these parameters help in determining the effectiveness of the targeted delivery treatment.

respiratory system = assay: Respiratory impedance spectrum (resistance and elastance) during MCh doses and after intravenous atropine
Procedure: By combining specific frequencies such that there is physiologic tidal excursion, in an example embodiment, the EVW is able to maintain gas exchange during conventional ventilation while providing continuous assessment of Z. The EVW differs from other oscillatory waveforms in that it has been modified to allow passive expiration, so Z is calculated from the inspiratory portion of the breath only.
The mechanical impedance spectrum of the lungs or total respiratory system can be very sensitive indicators of bronchoconstriction and response to therapy. Although mathematically Z is a complex number with real and imaginary parts, it can be expressed in terms of effective frequency dependent resistance and elastance. Measurements can be obtained before and 5 minutes following a deep inspiration (DI) to 35 cm H2O, as well as after administration of intravenous atropine. Under pre and post-DI conditions, both respiratory resistance (Rrs) and elastance (Ers) increased at each frequency with increases in MCh dose. At the lowest frequencies, Rrs increased ˜50% during the highest dose of MCh compared with baseline due to increases in both airway and tissue resistances. The Ers increased by ˜65% as the parenchyma stiffens due to airway-tissue interdependence. […] Thus, the impedance spectra reveal subtleties of airway mechanics and response to therapy not evident from simple Rrs and Ers estimates measured at a single breathing frequency. Coupling these types of data to distributed models of airway and tissue mechanics then allows estimates of the heterogeneity of airway or tissue changes in addition to the overall lung properties.

[4] = following intravenous atropine, MCh 200 μg/min
[5] = following intravenous atropine, any frequency

**Q.** Which “bronchodilation, targeted delivery mode compared with continuous delivery mode” value (airways [1]) does the source give for `FCOC(C(F)(F)F)C(F)(F)F` [sevoflurane] here?
**A.** slightly higher

**Q.** Which “levels of isoflurane agent in the lungs, targeted compared with continuous delivery method” value ([2]; over time) does the source give for `FC(F)OC(Cl)C(F)(F)F` (stereo not shown) [isoflurane] here?
**A.** lower for most of the time

**Q.** And the “peak level of isoflurane, targeted compared with continuous delivery method” value [2]?
**A.** comparable

**Q.** What about the “bronchodilation, targeted delivery mode compared with continuous delivery mode” value (airways [1]) of the same compound?
**A.** slightly higher

**Q.** And the “lung elastance (EL)” value (airways [3])?
**A.** decreasing trend

**Q.** And the “lung resistance (RL)” value (airways [3])?
**A.** decreasing trend

**Q.** What about the “estimation of dead space (VD)” value (airways [3]; evidence of bronchodilation) of the same compound?
**A.** increasing

**Q.** With `CN1[C@@H]2CC[C@H]1C[C@@H](OC(=O)C(CO)c1ccccc1)C2` (stereo partly shown) [atropine] as the compound, how does the “Ers compared with value at the highest MCh dose” value (respiratory system; [4]) read?
**A.** decrease

**Q.** And the “Rrs compared with value at the highest MCh dose” value (respiratory system; [4])?
**A.** decrease

**Q.** What about the “Ers compared with baseline value” (respiratory system; [5]) of the same compound?
**A.** no significant difference

**Q.** And the “Rrs compared with baseline value” (respiratory system; [5])?
**A.** no significant difference

**Q.** With `CC(=O)OC(C)C[N+](C)(C)C` (stereo not shown) [MCh, methacholine] as the compound, how does the “increase in respiratory elastance (Ers)” value (respiratory system; highest dose of MCh) read?
**A.** ~65%

**Q.** What about the “increase in respiratory resistance (Rrs) compared with baseline” value (respiratory system; lowest frequencies, highest dose of MCh (200 μg/min)) of the same compound?
**A.** ~50%
